# Laboratory results from patent US6468983B2, “RNase L activators and antisense oligonucleotides effective to treat telomerase-expressing malignancies” (The Cleveland Clinic Foundation, priority 1997, dated 2002).
# “Also recorded” adds a separate entry of the source.
# Assays:
# [1] = system: normal human astrocytes (PIN); test: Cell viability assay, trypan blue, same protocol on telomerase-negative normal astrocytes; assay type: cell-based; conditions: same protocol as the tumor cells, over the treatment period
# Description: The cytotoxic effect of 2-5A activator antisense complexes on tumor cells was determined using the trypan blue dye exclusion assay. Tumor cells were seeded at 10^4 cells/well (0.1 ml) in 96-well flat-bottomed plates and incubated overnight at 37° C. Then, oligonucleotides (5 micromolar) in water were added into cells every 12 hr. On successive days the cells were harvested and 25% of the total was examined microscopically to determine the percentage of viable cells, another 25% was replated to continue treatment and the remaining 50% were used for the TRAP assay.
# [2] = system: human melanoma cell line, A375; test: Viable cell count, daily oligonucleotide plus lipofectamine; assay type: cell-based; conditions: A375, 0.5 micromolar daily plus lipofectamine
# Description: (§1) Cells (10,000/well) were seeded on 96 well tissue culture dishes, and treated every 24 hours. A 10× concentrated mixture of oligonucleotides plus lipofectamine in water was prepared containing 5 micromolar oligonucleotide and 80 microgram per ml lipofectamine™ (Gibco/BRL) and incubated for 10 min at room temperature. Media was removed from the cells, 10 microliters of the oligonucleotide/lipofectamine mixture was added directly to the cultured cells followed by 90 microliters of media plus serum. The media was changed with oligonucleotide/lipofectamine treatments every 24 h. Cells were passaged when the control cells reached confluency, and viable cells were counted after staining with Trypan Blue (GibcoBRL). The numbers of cells treated only with lipofectamine were used as the control to calculate percentages of cell survival or viability.
# (§2) Similarly, the viability of the breast cancer cell line, MDA468, was reduced by 64% by SpA4-anti-hTR, while the control oligonucleotides reduced cell viability by <20% (FIG. 6). Viability of the human melanoma cell line, A375, was reduced by 43% in three days by SpA4-anti-hTR, while the control oligonucleotides had no effect (FIG. 7). […] Viability of a third human melanoma cell line, SK-MEL-5, was reduced by 43% by SpA4-anti-hTR, with minimal effects by the control oligonucleotides (FIG. 7). Two prostate tumor cells lines, PC3 and DU145, were suppressed by SpA4-anti-hTR treatments by 45% and 60%, respectively (FIGS. 6 and 10). […] The viability of the malignant glioma cell line, U373, was reduced by about 60% in 3 days, with intermediate effects by the control oligonucleotides (FIG. 6). Therefore, the proliferation and survival of every tumor cell type tested was inhibited by SpA4-anti-hTR. […] In contrast, there was no apoptosis detected in the control cells treated with lipofectamine without oligonucleotide (FIG. 12 upper panel).
# [3] = system: human melanoma cell line, SK-MEL-2; test: as above; assay type: cell-based; conditions: SK-MEL-2, 0.5 micromolar daily plus lipofectamine
# Description: as §1, §2
# [4] = system: human melanoma cell line, SK-MEL-5; test: as above; assay type: cell-based; conditions: SK-MEL-5, 0.5 micromolar daily plus lipofectamine
# Description: as §1, §2
# [5] = system: U373 human malignant glioma cells; test: TUNEL assay for apoptosis, oligonucleotide plus lipofectamine; assay type: cell-based
# Description: (§3) To further determine whether treatment with oligonucleotides induced apoptosis, tumor cells and tissues were stained by the terminal deoxynucleotidyl transferase (TdT)-mediated DUTP nick end labeling (TUNEL) technique using Apo-Tag kit (peroxidase conjugated) (Oncor Inc., Gaithersburg, Md.). The staining of apoptotic cells was done on U373MG cells. Oligonucleotides with lipofectamine was added to the cells every day. The final concentrations were 0.5 micromolar and 8 microgram/ml for oligo and lipofectamine, respectively. Pictures were taken after 3 days of treatment.
# [6] = system: U251-MG tumors; test: In situ end-labeling (TUNEL) of DNA in subcutaneous xenografts; assay type: in vivo, nude mice; conditions: 5 nmol every day for 7 days
# Excerpt: FIG. 14. In situ end-labeling of DNA in subcutaneous xenografts of nude mice. After treatment with oligonucleotides (5 nmol, every day) for 7 days, the mice were sacrificed and the subcutaneous mass was removed, frozen, and sectioned on a cryostat. The tumor specimens from U251-MG cells were counterstained by hematoxylin and eosin following the TUNEL technique. Arrows show representatives of tumor cells positive for DNA fragmentation (×400). (above) spA4-anti-(M6)hTR, 7 Day; (below) spA4-anti-hTR, 7 Day.
# as §3, with “Pictures were taken after 3 days of treatment.” left out
# U251-MG and U373 MG tumor cells (1.0×10^6 cells in 0.1 ml serum free DMEM and 0.1 ml Matrigel) were injected subcutaneously into the right flank of 8-12 week-old female Balb/c nude mice (5 mice for each treatment group). Tumor growth was monitored using calipers every 2- or 3-days. Tumor volume (V) was calculated as (L×W^2)/2, where L=length (mm) and W=width (mm). […]
# [7] = system: intracranial U373-MG tumors; test: Survival of mice with intracranial malignant glioma, intracranial injection; assay type: in vivo, Balb/c nude mice
# Description: To establish murine models with intracranial tumors of U373-MG human malignant glioma cells, Balb/c nude mice were used. Mice (8-12 week-old male) were anesthetized using ketamine (90 mg/kg) and xylazine (10 mg/kg) and placed in a stereotaxic frame (Lab Standard w/18 Degree Earbars, Stoelting, Wood Dale, Ill.). Inoculation of 5×10^5 tumor cells (10 microliter of a tumor cell suspension of 5×10^7/ml in serum free DMEM [0.5 ml] and matrigel [0.5 ml]) was performed transcranially using a 27-gauge stainless-steel needle and microliter syringe (Perfectum, Popper & Sons, Inc., New Hyde Park, N.Y.). The needle insertion was in the skull 1 mm anterior and.2 mm lateral to the bregma and the depth of insertion was 4 mm from the skull (the caudate nucleus). The needle was left in place for 3 min and then withdrawn slowly over another minute. Two weeks after inoculation of tumor cells, mice were deeply anesthetized with ketamine/xylazine, and sacrificed by transcardiac perfusion with 4% formaldehyde. The brains were then sliced to include the injection site, and 12 μm sections were made for histological analysis. To determine the effect of 2-5A-anti-hTR on intracranial tumors, spA4-anti-hTR (3 nmol/10 microliter distilled water/3 microliter Lipofectamine, three times) was injected intracranially into the tumors via the same coordinates three weeks after inoculation of tumor cells (on Days 21, 23, and 25).
substance,measurement,setting,value
"Sp5′A2′p(5′A2p)3-[(Bu)p]2-5′GCG CGG GGA GCA AAA GCA C3′-3′T5′ (antisense GCGCGGGGAGCAAAAGCAC; 5'-thiophosphate 2-5A tetramer, butanediol linkers, 3'-3'T cap, chemistry not fully specified) [spA4-anti-hTR, 2-5A tetramer linked by butanediol linkers to 19-mer antisense against human telomerase RNA nucleotides 76 to 94]",reduction in cell viability,[1],less than 5%
same,reduction in cell viability,[1]; listed as SpA4-anti-hTR,2-3%
same,effect on growth/viability (in words),[2],specifically suppressed growth
same,reduction in viability,[2]; three days,43%
same,effect on growth/viability (in words),[3],specifically suppressed growth
same,survival,[3],< 0.1%
same,effect on growth/viability (in words),[4],specifically suppressed growth
same,reduction in viability,[4],43%
same,apoptosis by TUNEL (in words),[5]; 0.5 micromolar daily plus lipofectamine for 3 days,apoptosis was clearly visible
same,apoptosis by TUNEL assay for DNA breakage (in words),[5]; over time of treatment,time-dependent increase in apoptotic cells; also recorded: caused apoptosis
same,apoptotic cells observed in tumors (TUNEL),[6],many apoptotic cells
same,survival of mice,"[7]; 9 weeks after inoculation of tumor cells, 3 nmol plus Lipofectamine intracranially on Days 21, 23, 25",50%
same,mice survived,[7]; at 62 days post-tumor implantation,50%
same,survival of mice (in words),[7]; intracranial injection,Enhanced survival
